Consider 36 molecules from patent US9758492B2, “IDO inhibitors” (Bristol-Myers Squibb Company, priority 2013, dated 2017).

This test has as its target IDO (Homo sapiens, UniProt P14902). The test is described as follows: LLE_IDO_ABS_DR (IDO assay).

Chain of IDO (P14902 whole entry): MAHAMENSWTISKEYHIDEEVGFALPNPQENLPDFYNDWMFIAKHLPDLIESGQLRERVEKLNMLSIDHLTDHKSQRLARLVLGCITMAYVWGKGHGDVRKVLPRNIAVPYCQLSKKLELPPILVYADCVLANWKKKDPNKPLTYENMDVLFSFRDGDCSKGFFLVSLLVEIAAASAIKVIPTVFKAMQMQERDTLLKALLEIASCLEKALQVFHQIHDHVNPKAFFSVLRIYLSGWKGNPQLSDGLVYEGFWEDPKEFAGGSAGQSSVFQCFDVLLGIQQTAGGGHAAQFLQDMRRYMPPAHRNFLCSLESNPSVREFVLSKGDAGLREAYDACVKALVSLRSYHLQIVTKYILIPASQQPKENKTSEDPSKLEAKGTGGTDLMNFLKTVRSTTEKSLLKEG

In the case of `CCC1CCCCN1c1ccc(-c2ccccc2C(=O)O)cc1NC(=O)Nc1ccccc1F` (stereo not drawn) [Example 116, 4′-(2-ethylpiperidin-1-yl)-3′-(3-(2-fluorophenyl)ureido) biphenyl-2-carboxylic acid], the IC50 is 2340 nM. On to `CCN(CCOC)c1ccc(-c2ccccc2C(=O)O)cc1NC(=O)Nc1ccc(C)cc1` [Example 72, 4′-(ethyl(2-methoxyethyl)amino)-3′-(3-p-tolylureido)biphenyl-2-carboxylic acid], for which the IC50 was found to be 850 nM. In the case of `Cc1ccc(NC(=O)Nc2cc(-c3ccccc3C(=O)O)ccc2N(CCC(C)C(F)(F)F)CC(C)C)cc1` (stereo not drawn) [Example 205, 4′-(isobutyl (4,4,4-trifluoro-3-methylbutyl)amino)-3′-(3-(p-tolyl)ureido)-[1,1′-biphenyl]-2-carboxylic acid], half-maximal inhibition (IC50) was put at 20 nM. `Cc1ccc(NC(=O)Nc2cc(-c3ccccc3-c3nnn[nH]3)ccc2N(Cc2ccc(Cl)cc2)C2CCCCC2)cc1` [Example 468] gave a half-inhibitory concentration (IC50) of 80 nM. Regarding `O=C(Nc1ccccc1F)Nc1cc(-c2cc(F)ccc2C(=O)O)ccc1N(Cc1ccc(Cl)cc1)C1CCCCC1` [Example 470], the concentration for half-maximal inhibition (IC50) came to 190 nM. For the molecule `CCN(c1ccc(-c2ccc(OC)c(C(=O)O)c2)cc1NC(=O)Nc1ccc(C)cc1)C1CCCC1` [Example 77, 4′-(cyclopentyl(ethyl)amino)-4-methoxy-3′-(3-p-tolylureido) biphenyl-3-carboxylic acid], the IC50 came to 3260 nM. Compared with the last molecule, the IC50 is about 17-fold higher. The same measure for `Cc1ccc(NC(=O)Nc2cc(-c3cscc3C(=O)O)ccc2N(CC(C)C)CC(C)C)cc1` [Example 35, 4-(4-(Diisobutylamino)-3-(3-p-tolylureido)phenyl)thiophene-3-carboxylic acid]: 10 nM; for `[2H]C([2H])(C(C)C)N(c1ccc(-c2cc(F)ccc2C(=O)O)cc1NC(=O)Nc1ccccc1F)C1CCCCC1` [Example 34, 4′-(Cyclohexyl(1,1-dideutero-2-methylpropyl)amino)-5-fluoro-3′-(3-(2-fluorophenyl)ureido)biphenyl-2-carboxylic acid]: 4.01 nM.

`Cc1ccc(NC(=O)Nc2cc(-c3cc(F)ccc3C(=O)O)ccc2N(CCC(F)(F)F)Cc2ccc(Cl)cc2)cc1` [Example 15, 4′-((4-Chlorobenzyl)(3,3,3-trifluoropropyl)amino)-5-fluoro-3′-(3-(p-tolyl)ureido)-[1,1′-biphenyl]-2-carboxylic acid]: the IC50 worked out at 90 nM. For `CC(C)CN(CCC1CC1)c1ccc(-c2cc(F)ccc2C(=O)O)cc1NC(=O)Nc1ccccc1F` [Example 135, 4′-((2-cyclopropylethyl) (isobutyl)amino)-5-fluoro-3′-(3-(2-fluorophenyl)ureido)biphenyl-2-carboxylic acid], the 50% inhibitory concentration (IC50) was 20 nM.

For the molecule `C#CCOc1ccccc1NC(=O)Nc1cc(-c2ccccc2-c2nnn[nH]2)ccc1N(CC(C)C)CC(C)C` [Example 269, 1-(4-(diisobutylamino)-2′-(2H-tetrazol-5-yl)-[1,1′-biphenyl]-3-yl)-3-(2-(prop-2-yn-1-yloxy)phenyl)urea], the half-inhibitory concentration (IC50) came to 250 nM. `O=C(Nc1ccc(F)cc1F)Nc1cc(-c2ccccc2-c2nnn[nH]2)ccc1N(CCC(F)(F)F)Cc1ccc(Cl)cc1Cl` [Example 336, 1-(4-((2,4-dichlorobenzyl)(3,3,3-trifluoropropyl)amino)-2′-(1H-tetrazol-5-yl)-[1,1′-biphenyl]-3-yl)-3-(2,4-difluorophenyl) urea] came in with an IC50 of 340 nM. The IC50 values of the last two molecules are within 1.5-fold of each other. The same measure for `Cc1ccc(NC(=O)Nc2cc(-c3ccccc3C(=O)O)ccc2N(CC2CC2)C2CCCCC2)cc1` [Example 83, 4′-(cyclohexyl (cyclopropylmethyl)amino)-3′-(3-p-tolylureido)biphenyl-2-carboxylic acid]: 20 nM; for `CC(C)CN(CC(C)C)c1ccc(-c2ccccc2-c2nnn[nH]2)cc1NC(=O)Nc1nccs1` [Example 7, 1-(4-(Diisobutylamino)-2′-(1H-tetrazol-5-yl)biphenyl-3-yl)-3-(thiazol-2-yl)urea]: 20 nM; for `O=C(Nc1ccc(C2CC2)cc1)Nc1cc(-c2ccccc2-c2nnn[nH]2)ccc1N1CCC(F)(F)C1` [Example 347, 1-(4-cyclopropylphenyl)-3-(4-(3,3-difluoropyrrolidin-1-yl)-2′-(1H-tetrazol-5-yl)-[1,1′-biphenyl]-3-yl)urea]: 5260 nM. In turn, `Cc1ccc(NC(=O)Nc2cc(-c3ccccc3-c3nnn[nH]3)ccc2N(CCC(F)(F)F)Cc2ccccc2)cc1` [Example 10, 1-(4-(Benzyl(3,3,3-trifluoropropyl)amino)-2′-(1H-tetrazol-5-yl)-[1,1′-biphenyl]-3-yl)-3-(p-tolyl)urea] registered an IC50 of 100 nM.

With `Cc1ccc(NC(=O)Nc2cc(-c3ccccc3C(=O)O)ccc2N(C)CC(C)C)cc1` [Example 180, 4′-(isobutyl(methyl)amino)-3′-(3-(p-tolyl)ureido)-[1,1′-biphenyl]-2-carboxylic acid], it took 230 nM to reach half-maximal inhibition (IC50). `O=C(Nc1ccc(F)cc1F)Nc1cc(-c2ccccc2-c2nnn[nH]2)ccc1N(CCC(F)(F)F)Cc1ccc(C(F)(F)F)cc1` [Example 330, 1-(2′-(1H-tetrazol-5-yl)-4-((4-(trifluoromethyl)benzyl)(3,3,3-trifluoropropyl)amino)-[1,1′-biphenyl]-3-yl)-3-(2,4-difluorophenyl) urea] showed an IC50 of 20 nM. Consider `COc1ccc(C(=O)O)c(-c2ccc(N(CC(C)C)CC(C)C)c(NC(=O)Nc3ccc(F)cc3F)c2)c1` [Example 160, 3′-(3-(2,4-difluorophenyl)ureido)-4′-(diisobutylamino)-5-methoxybiphenyl-2-carboxylic acid], for which 190 nM corresponded to half-maximal inhibition (IC50). This IC50 lies about 9.5-fold higher than the previous one. Consider `Cc1ccc(NC(=O)Nc2cc(-c3ccccc3-c3nnn[nH]3)ccc2N(CCC(F)(F)F)CC(C)C)cc1` [Example 199, 1-(4-(isobutyl(3,3,3-trifluoropropyl)amino)-2′-(1H-tetrazol-5-yl)-[1,1′-biphenyl]-3-yl)-3-(p-tolyl)urea], for which half-maximal inhibition (IC50) was put at 60 nM. Against the preceding molecule, the IC50 is about 3.2-fold lower.

Molecule `CCCN(c1ccc(-c2cc(F)ccc2C(=O)O)cc1NC(=O)Nc1ccc(C)cc1)C1CCCCC1` [Example 87, 4′-(cyclohexyl (propyl)amino)-5-fluoro-3′-(3-p-tolylureido) biphenyl-2-carboxylic acid] yielded a 50% inhibitory concentration (IC50) of 3.68 nM.

In turn, `Cc1ccc(NC(=O)Nc2cc(-c3cc(F)ccc3C(=O)O)ccc2N(CCC(C)(C)O)Cc2ccc(Cl)cc2)cc1` [Example 374] came in with a half-maximal inhibitory concentration (IC50) of 6840 nM. This IC50 lies about 1900-fold higher than the previous one. Molecule `CC(C)CN(CC(C)C)c1ccc(-c2ccccc2-c2nnn[nH]2)cc1NC(=O)NCC1CC1` [Example 142, 1-(cyclopropylmethyl)-3-(4-(diisobutylamino)-2′-(1H-tetrazol-5-yl)biphenyl-3-yl)urea] came in with a 50% inhibitory concentration (IC50) of 950 nM. `Cc1ccc(NC(=O)Nc2c(N(CC(C)C)CC(C)C)ccc(-c3ccccc3C(=O)O)c2F)cc1` [Example 26, 4′-(Diisobutylamino)-2′-fluoro-3′-(3-(p-tolyl)ureido)-[1,1′-biphenyl]-2-carboxylic acid] displayed a half-inhibitory concentration (IC50) of 370 nM. Regarding `Cc1ccc(NC(=O)Nc2cc(-c3ccccc3-c3nnn[nH]3)ccc2N(Cc2ccccc2)CC(C)C)cc1` [Example 289, 1-(4-(Benzyl(isobutyl)amino)-2′-(1H-tetrazol-5-yl)-[1,1′-biphenyl]-3-yl)-3-(p-tolyl)urea], half-maximal inhibition (IC50) was put at 1210 nM. `[2H]C([2H])(C(C)C)N(c1ccc(-c2sccc2C(=O)O)cc1NC(=O)Nc1ccccc1F)C1CCCCC1` [Example 36, 2-(4-(Cyclohexyl(1,1-dideutero-2-methylpropyl)amino)-3-(3-(2-fluorophenyl)ureido)phenyl)thiophene-3-carboxylic acid] displayed a half-inhibitory concentration (IC50) of 5.9 nM. Molecule `Cc1ccc(NC(=O)Nc2cc(-c3ccccc3C(=O)O)ccc2N(C)C2CCCCCC2)cc1` [Example 80, 4′-(cycloheptyl(methyl)amino)-3′-(3-p-tolylureido)biphenyl-2-carboxylic acid] had an IC50 of 8.75 nM. This IC50 and that of the molecule before are within 1.5-fold of each other. On to `COc1ccc(C(=O)O)c(-c2ccc(N(CC(C)C)CC(C)C)c(NC(=O)Nc3ccc(C)cc3)c2)c1` [Example 128, 4′-(diisobutylamino)-5-methoxy-3′-(3-p-tolylureido)biphenyl-2-carboxylic acid], for which the half-maximal inhibitory concentration (IC50) was determined as 390 nM. In turn, `Cc1ccc(NC(=O)Nc2cc(-c3cc(F)ccc3C(=O)O)ccc2N(CC(C)C)CC(F)(F)F)cc1` [Example 476] gave a concentration for half-maximal inhibition (IC50) of 140 nM.

`O=C(Nc1cc(-c2ccccc2-c2nnn[nH]2)ccc1N(CCC(F)(F)F)Cc1ccc(F)cc1)Nc1ccccc1C(F)(F)F` [Example 326, 1-(4-((4-fluorobenzyl)(3,3,3-trifluoropropyl)amino)-2′-(1H-tetrazol-5-yl)-[1,1′-biphenyl]-3-yl)-3-(2-(trifluoromethyl)phenyl)urea] yielded a half-inhibitory concentration (IC50) of 1330 nM. The result for `C#CCN(CC(C)C)c1ccc(-c2ccccc2-c2nnn[nH]2)cc1NC(=O)Nc1ccc(C)cc1` [Example 24, 1-(4-(Isobutyl(prop-2-yn-1-yl)amino)-2′-(1H-tetrazol-5-yl)-[1,1′-biphenyl]-3-yl)-3-(p-tolyl)urea] reads 10 nM; that for `CCCN(c1ccc(-c2ccccc2-c2nnn[nH]2)cc1NC(=O)Nc1ccc(C)cc1)C1CCCCC1` [Example 85, 1-(4-(cyclohexyl(propyl)amino)-2′-(1H-tetrazol-5-yl)biphenyl-3-yl)-3-p-tolylurea], 1.65 nM; that for `CCCN(c1ccc(-c2ccccc2-c2nnn[nH]2)cc1NC(=O)Nc1ccc(C)cc1)C1CCCC1` [Example 169, 1-(4-(cyclopentyl(propyl)amino)-2′-(1H-tetrazol-5-yl)biphenyl-3-yl)-3-p-tolylurea], 4.55 nM. For the molecule `O=C(Nc1ccc(OC(F)(F)F)cc1)Nc1cc(-c2ccccc2-c2nnn[nH]2)ccc1N1CC2CC1CN2Cc1ccccc1` (stereo not drawn) [Example 318, 1-(4-(5-benzyl-2,5-diazabicyclo[2.2.1]heptan-2-yl)-2′-(1H-tetrazol-5-yl)-[1,1′-biphenyl]-3-yl)-3-(4-(trifluoromethoxy)phenyl)urea], the IC50 is 120 nM.

Turning to `Cc1ccc(NC(=O)Nc2cc(-c3ccccc3-c3nnn[nH]3)ccc2N(CCC(F)(F)F)Cc2ccc(C(F)(F)F)cc2)cc1` [Example 329, 1-(2′-(1H-tetrazol-5-yl)-4-((4-(trifluoromethyl)benzyl)(3,3,3-trifluoropropyl)amino)-[1,1′-biphenyl]-3-yl)-3-(p-tolyl)urea], it took 4.03 nM to reach half-maximal inhibition (IC50). `Cc1ccc(NC(=O)Nc2cc(-c3ccccc3-c3nnn[nH]3)ccc2N2CCC(c3nc(C)no3)C2)cn1` (stereo not drawn) [Example 388] yielded an IC50 of 10000 nM.
